Among the data in ChEMBL document CHEMBL5052843, “Inhibitors of apol1 and methods of using same” (2020) are IC50 values, retold here.

Each structure is given as a SMILES string.

The test system of assay [1] is Trypanosoma brucei brucei. As to the kind of experiment: Antitrypanosomal activity against Trypanosoma brucei brucei assessed as trypanosome lysis using recombinant APOL1 protein G1 variant and measured by Alamar blue based fluorescene assay. The assay is classed as functional, organism-based. For orientation: Alamar Blue is a resazurin reagent that responds to reducing activity.

Another assay has as its target Apolipoprotein L1 (Homo sapiens, UniProt O14791). As to the kind of experiment: Inhibition of APOL1 G1 variant in human HEK293-T-REx cells measured by Thallium assay. The assay is classed as cell-based.

The term IC50 denotes the point on the concentration scale where inhibition reaches its midpoint. Regarding `O=C(CCc1c(-c2ccc(F)cc2)[nH]c2ccc(F)cc12)N[C@@H]1CCNC1=O`, the IC50 (in assay [1]; against Apolipoprotein L1) was 250 nM each time. For `O=C(CCc1c(-c2ccc(F)cc2)[nH]c2c(F)cc(F)cc12)N[C@H]1C[C@@H](CO)NC1=O`, the IC50 (in assay [1]; on Apolipoprotein L1) was over 1000 nM throughout. `O=C(CCc1c(-c2ccc(F)cc2)[nH]c2ccc(F)cc12)N[C@@H]1C(=O)NC[C@H]1O`: the IC50 (in assay [1]; on Apolipoprotein L1) was under 250 nM throughout. Take `O=C(CCc1c(-c2ccc(F)cc2)[nH]c2ccc(F)cc12)NC1CCNC1=O` (configuration not stated): the half-inhibitory concentration (IC50) (in assay [1]; against Apolipoprotein L1) was under 250 nM throughout. Turning to `O=C(CCc1c(-c2ccccc2)[nH]c2cccc(F)c12)N[C@@H]1C(=O)NC[C@H]1O`, the results for the 50% inhibitory concentration (IC50) (in assay [1]; on Apolipoprotein L1) were 250 nM and under 250 nM, respectively. Turning to `O=C1NC[C@@H](O)[C@@H]1NC(=O)C(F)(F)Cc1c(-c2ccc(F)cc2)[nH]c2c(F)cc(F)cc12`, the IC50 (in assay [1]; against Apolipoprotein L1) was under 250 nM each time. For the compound `[2H]C(C(=O)N[C@@H]1C(=O)NC[C@H]1O)C([2H])c1c(-c2ccc(F)cc2)[nH]c2c(F)cc(F)cc12` (some centres not stated), the IC50 (in assay [1]; at Apolipoprotein L1) was under 250 nM each time.

`O=C(CCc1c(-c2ccc(F)cc2)[nH]c2c(F)cc(F)cc12)NC1CC2(CC2)NC1=O` (configuration not stated) came in with an IC50 against Apolipoprotein L1 of over 1000 nM. Same read-out and setting: the value for `N#Cc1cccc(-c2[nH]c3ccc(F)cc3c2CCC(=O)N[C@H]2CCNC2=O)c1` was over 1000 nM. For the compound `CN(C(=O)CCc1c(-c2ccc(F)cc2)[nH]c2ccc(F)cc12)C1CCNC1=O` (configuration not stated), the IC50 (in assay [1]; at Apolipoprotein L1) was 250 nM throughout. In turn, `O=C(CCc1c(-c2ccccc2)[nH]c2c(Cl)cc(F)cc12)N[C@@H]1C(=O)NC[C@H]1O` came in with an IC50 on Apolipoprotein L1 of under 250 nM. As for `O=C(CCc1c(-c2ccc(OC(F)(F)F)cc2)[nH]c2ccccc12)N[C@@H]1C(=O)NC[C@H]1O`, the concentration for half-maximal inhibition (IC50) (in assay [1]; against Apolipoprotein L1) was under 250 nM in each case.

Take `O=C(CCc1c(-c2ccccc2)[nH]c2c(C3=CCOC3)cccc12)N[C@@H]1C(=O)NC[C@H]1O`: at Apolipoprotein L1, the IC50 was over 1000 nM. As for `O=C(CCc1c(-c2ccccc2)[nH]c2ccc(Cl)cc12)N[C@@H]1C(=O)NC[C@H]1O`, the IC50 (in assay [1]; on Apolipoprotein L1) was under 250 nM in each case.

`O=C1NC[C@@H](O)[C@@H]1NC(=O)[C@@H](O)Cc1c(-c2ccc(F)cc2)[nH]c2c(F)cc(F)cc12` returned a concentration for half-maximal inhibition (IC50) against Apolipoprotein L1 of over 1000 nM. Same read-out and setting: the value for `O=C(CCc1c(-c2ccc(F)cc2)[nH]c2c(F)cc(F)cc12)N[C@H]1C[C@H](CF)NC1=O` was over 1000 nM; that for `O=C(CCc1c(-c2ccc(F)cc2)[nH]c2c(F)cc(F)cc12)N[C@H]1C[C@@H](CF)NC1=O` was over 1000 nM; that for `C[C@H]1CNC(=O)[C@H]1NC(=O)CCc1c(-c2ccc(F)cc2)[nH]c2c(F)cc(F)cc12` was over 1000 nM. For `O=C(CCc1c(-c2ccc(F)cc2)[nH]c2c(Cl)cccc12)N[C@@H]1C(=O)NC[C@H]1O`, the concentration for half-maximal inhibition (IC50) (in assay [1]; against Apolipoprotein L1) was under 250 nM in each case. Regarding `O=C(CCc1c(-c2ccc(F)cc2)[nH]c2c(F)cc(F)cc12)N[C@H]1C[C@H](CO)NC1=O`, the IC50 (in assay [1]; on Apolipoprotein L1) was over 1000 nM in each case. The compound `O=C(CCc1c(-c2ccc(F)cc2)[nH]c2c(F)c(F)c(F)cc12)N[C@@H]1C(=O)NC[C@H]1O` had a 50% inhibitory concentration (IC50) against Apolipoprotein L1 of under 250 nM. Consider `COc1cc(F)cc2c(CCC(=O)N[C@H]3CCNC3=O)c(-c3ccc(F)cc3)[nH]c12`, for which, on Apolipoprotein L1, the concentration for half-maximal inhibition (IC50) was 250 nM. On to `O=C1C[C@H](NC(=O)CCc2c(-c3ccc(F)cc3)[nH]c3c(F)cc(F)cc23)C(=O)N1`, for which the half-inhibitory concentration (IC50) (in assay [1]; against Apolipoprotein L1) was 250 nM in each case. Turning to `O=C(CCc1c(-c2ccc(F)c(F)c2)[nH]c2c(F)cc(F)cc12)N[C@@H]1C(=O)NC[C@H]1O`, the IC50 (in assay [1]; against Apolipoprotein L1) was under 250 nM each time.

In turn, `O=C(CCc1c(-c2ccccc2)[nH]c2c(F)cccc12)N[C@H]1CCNC1=O` gave an IC50 against Apolipoprotein L1 of 250 nM.

The compound `O=C(CCc1c(-c2ccc(F)cc2)[nH]c2c(Cl)cc(F)cc12)N[C@H]1CCNC1=O` registered an IC50 at Apolipoprotein L1 of under 250 nM. Turning to `O=C(CCc1c(-c2ccccc2)[nH]c2c(F)cc(F)cc12)N[C@@H]1C(=O)NC[C@H]1O`, the IC50 (in assay [1]; on Apolipoprotein L1) was under 250 nM in each case. As for `Cc1ccc(-c2[nH]c3c(F)cc(F)cc3c2CCC(=O)N[C@@H]2C(=O)NC[C@H]2O)cc1`, at Apolipoprotein L1, the half-maximal inhibitory concentration (IC50) is under 250 nM.

For the compound `COc1cccc2c(CCC(=O)N[C@H]3CCNC3=O)c(-c3ccc(F)cc3)[nH]c12`, the IC50 on Apolipoprotein L1 is over 1000 nM.

`O=C(CCc1c(-c2ccccc2)[nH]c2c(C3CC3)cccc12)N[C@@H]1C(=O)NC[C@H]1O` displayed a 50% inhibitory concentration (IC50) against Apolipoprotein L1 of under 250 nM. As for `CC(CC(=O)N[C@H]1CCNC1=O)c1c(-c2ccc(F)cc2)[nH]c2c(F)cc(F)cc12` (some centres not stated), on Apolipoprotein L1, the IC50 was over 1000 nM. Compound `O=C(CCc1c(-c2ccc(F)cc2)[nH]c2ccccc12)N[C@H]1C(=O)NC[C@H]1O` came in with a half-maximal inhibitory concentration (IC50) against Apolipoprotein L1 of 250 nM. On the same count and under the same terms, with `O=C(N[C@@H]1C(=O)NC[C@H]1O)[C@H](O)Cc1c(-c2ccc(F)cc2)[nH]c2c(F)cc(F)cc12` the figure was over 1000 nM; with `C[C@@H](Cc1c(-c2ccc(F)cc2)[nH]c2c(F)cc(F)cc12)C(=O)N[C@H]1CCNC1=O`, over 1000 nM; with `O=C(CCc1c(-c2ccc(F)cc2)[nH]c2c(F)cc(Cl)cc12)N[C@@H]1CCNC1=O`, 250 nM. Still for that read-out and setting: with `Cc1c(F)ccc2c(CCC(=O)N[C@@H]3C(=O)NC[C@H]3O)c(-c3ccccc3)[nH]c12` the figure was under 250 nM; with `O=C(CCc1c(-c2ccc(F)cc2)[nH]c2c(C(F)F)cc(F)cc12)N[C@@H]1C(=O)NC[C@H]1O`, under 250 nM; with `O=C(CCc1c(-c2ccccc2)[nH]c2c(C3CCOC3)cccc12)N[C@@H]1C(=O)NC[C@H]1O` (some centres not stated), 250 nM. Compound `C[C@@H](Cc1c(-c2ccc(F)cc2)[nH]c2c(F)cc(F)cc12)C(=O)N[C@@H]1C(=O)NC[C@H]1O` yielded an IC50 on Apolipoprotein L1 of 250 nM. On the same count and under the same terms, with `O=C(CSc1c(-c2ccc(F)cc2)[nH]c2ccccc12)N[C@@H]1C(=O)NC[C@H]1O` the figure was under 250 nM. The compound `C=C(C)c1cccc2c(CCC(=O)N[C@@H]3C(=O)NC[C@H]3O)c(-c3ccccc3)[nH]c12` showed a half-inhibitory concentration (IC50) against Apolipoprotein L1 of 250 nM. Regarding `Cc1cccc2c(CCC(=O)N[C@@H]3C(=O)NC[C@H]3O)c(-c3ccccc3)[nH]c12`, at Apolipoprotein L1, the IC50 is under 250 nM. Still for that read-out and setting: the value for `O=C(CCc1c(-c2ccc(OC(F)F)cc2)[nH]c2ccccc12)N[C@@H]1C(=O)NC[C@H]1O` was under 250 nM; that for `CC(C)c1cccc2c(CCC(=O)N[C@@H]3C(=O)NC[C@H]3O)c(-c3ccccc3)[nH]c12` was 250 nM; that for `O=C(CCc1c(-c2ccc(F)cc2)[nH]c2cc(F)c(F)cc12)N[C@@H]1C(=O)NC[C@H]1O` was under 250 nM. For the compound `Cc1ccc(-c2[nH]c3c(F)cc(F)cc3c2CCC(=O)N[C@H]2CCNC2=O)cc1`, the IC50 at Apolipoprotein L1 is under 250 nM.

For the compound `O=C(CCc1c(-c2ccc(F)cc2)[nH]c2c(F)cc(Cl)cc12)N[C@H]1CCNC1=O`, the IC50 against Apolipoprotein L1 is under 250 nM. As for `CC(=O)O[C@@H]1CNC(=O)[C@H]1NC(=O)CCc1c(-c2ccc(F)cc2)[nH]c2c(F)cc(F)cc12`, the IC50 at Apolipoprotein L1 was over 1000 nM. On Apolipoprotein L1, `Cc1cc(F)cc2c(CCC(=O)N[C@H]3CCNC3=O)c(-c3ccc(F)cc3)[nH]c12` came in with an IC50 of under 250 nM. Same read-out and setting: the value for `O=C(CCc1c(-c2ccccc2)[nH]c2c(F)cc(F)cc12)N[C@H]1CCNC1=O` was under 250 nM. On the same count and under the same terms, the value for `O=C(CCc1c(-c2ccc(F)cc2)[nH]c2c(C(F)(F)F)cccc12)N[C@@H]1C(=O)NC[C@H]1O` was under 250 nM; that for `CC(CC(=O)N[C@@H]1C(=O)NC[C@H]1O)c1c(-c2ccc(F)cc2)[nH]c2c(F)cc(F)cc12` (some centres not stated) was over 1000 nM; that for `O=C(CCc1c(-c2ccc(F)cc2)[nH]c2c(F)c(F)ccc12)N[C@H]1CCNC1=O` was 250 nM.

Compound `CC(C)(O)c1cccc2c(CCC(=O)N[C@@H]3C(=O)NC[C@H]3O)c(-c3ccccc3)[nH]c12` had an IC50 at Apolipoprotein L1 of 250 nM. With `O=C(CCc1c(-c2ccccc2)[nH]c2c(C(F)(F)F)cc(F)cc12)N[C@@H]1C(=O)NC[C@H]1O`, the IC50 on Apolipoprotein L1 was under 250 nM. As to `O=C(CCc1c(-c2ccc(F)cc2)[nH]c2ccccc12)N[C@H]1C(=O)NC[C@@H]1O`, on Apolipoprotein L1, the half-maximal inhibitory concentration (IC50) is over 1000 nM. On the same count and under the same terms, with `Cc1cc(F)c2[nH]c(-c3ccc(F)cc3)c(CCC(=O)N[C@H]3CCNC3=O)c2c1` the figure was 250 nM; with `O=C(CCc1c(-c2ccc(F)cc2)[nH]c2c(F)cc(OC(F)F)cc12)N[C@@H]1C(=O)NC[C@H]1O`, under 250 nM. The compound `Cc1cc(F)ccc1-c1[nH]c2ccccc2c1CCC(=O)N[C@@H]1C(=O)NC[C@H]1O` gave a 50% inhibitory concentration (IC50) against Apolipoprotein L1 of 250 nM. Still for that read-out and setting: with `O=C(N[C@H]1CCNC1=O)[C@H](O)Cc1c(-c2ccccc2)[nH]c2c(F)cc(F)cc12` the figure was over 1000 nM; with `O=C(CCc1c(-c2ccc(F)cc2)[nH]c2c(F)cc(F)cc12)N[C@H]1C(=O)NC[C@@H]1O`, 250 nM; with `O=C(CCc1c(-c2ccccc2)[nH]c2c(Cl)cccc12)N[C@@H]1C(=O)NC[C@H]1O`, under 250 nM. Turning to `O=C(CCc1c(-c2ccc(F)cc2)[nH]c2cc(O)ccc12)N[C@H]1C(=O)NC[C@@H]1O`, the IC50 on Apolipoprotein L1 was over 1000 nM. Same read-out and setting: with `COc1ccc2[nH]c(-c3ccc(F)cc3)c(CCC(=O)N[C@H]3CCNC3=O)c2c1` the figure was over 1000 nM; with `C=Cc1cccc2c(CCC(=O)N[C@@H]3C(=O)NC[C@H]3O)c(-c3ccccc3)[nH]c12`, under 250 nM. On the same count and under the same terms, with `Cc1ccc(-c2[nH]c3c(F)cc(F)cc3c2CCC(=O)N[C@@H]2CCNC2=O)cc1` the figure was under 250 nM; with `O=C(CCc1c(-c2ccc(F)cc2)[nH]c2c(F)cc(F)cc12)N[C@H]1C(=O)NC[C@H]1O`, 250 nM. Take `Cc1cccc2c(CCC(=O)N[C@@H]3C(=O)NC[C@H]3O)c(-c3ccc(F)cc3)[nH]c12`: the concentration for half-maximal inhibition (IC50) against Apolipoprotein L1 was under 250 nM. For the compound `O=C(CCc1c(-c2ccc(F)cc2)[nH]c2ccccc12)N[C@@H]1C(=O)NC[C@@H]1O`, on Apolipoprotein L1, the concentration for half-maximal inhibition (IC50) is over 1000 nM. Still for that read-out and setting: with `Cc1c(F)ccc2c(CCC(=O)N[C@@H]3C(=O)NC[C@H]3O)c(-c3ccc(F)cc3)[nH]c12` the figure was under 250 nM; with `O=C(CCc1c(-c2ccc(F)cc2)[nH]c2ccc(Cl)cc12)N[C@@H]1C(=O)NC[C@H]1O`, under 250 nM; with `O=C(CCc1c(-c2ccc(Cl)cc2)[nH]c2c(Cl)cccc12)N[C@@H]1C(=O)NC[C@H]1O`, under 250 nM.
